Assay results: article PMC12469672, “Effects on Oral Squamous Carcinoma Cell Lines and Their Mechanisms of Pyrazole N-Aryl Sulfonate: A Novel Class of Selective Cyclooxygenase-2 Inhibitors” (International Journal of Molecular Sciences, 2025)
Like-named read-outs stand apart in the source and are kept apart here.

Columns and labels:
CAL-27 cells = assay: CCK-8 proliferation assay, CAL-27; assay type: cell-based; conditions: for IC50: Homo sapiens; for Selectivity Index CAL-27: SI = IC50,VERO/IC50,CAL-27
Description: (§1) The OSCC cell lines CAL-27 (STCC12901P, Servicebio, Wuhan, China) and SAS (CC0706, Cellcook, Guangzhou, China) were cultured in Dulbecco Modified Eagle Medium F12 (DMEM/F12) (G4610-500ML, Servicebio, Wuhan, China) supplemented with 10% fetal bovine serum (FBS) (AB-FBS-DIA1050, ABW, Shanghai, China) and 100 U/mL penicillin-streptomycin-gentamicin solution (G4014-100ML, Servicebio, Wuhan, China). VERO cells were cultured in DMEM (G4524-500ML, Servicebio, Wuhan, China) supplemented with 10% FBS (AB-FBS-DIA1050, ABW, China) and 100 U/mL penicillin–streptomycin–gentamicin solution (G4014-100ML, Servicebio, Wuhan, China). […] were maintained at 37 °C in a humidified 5% CO2 incubator. For experiments, 1 × 10^6 cells were seeded per T-25 culture flask.
(§2) CAL-27, SAS, and VERO cells were seeded in 96-well plates at a density of 5000 cells per well. At specified time intervals, 10 μL of Cell Counting Kit-8 (CCK-8) reagent (K1018, Apexbio, Boston, MA, USA) was added to each well and incubated for 2 h. Absorbance at 450 nm was measured using a microplate reader (Infinite M200 Pro, Tecan Group, Männedorf, Switzerland).

SAS cells = assay: CCK-8 proliferation assay, SAS; assay type: cell-based; conditions: for IC50: SAS; for Selectivity Index SAS: SI = IC50,VERO/IC50,SAS
Description: as §1, §2

VERO cells = assay: CCK-8 cytotoxicity assay, VERO; assay type: cell-based, African green monkey; conditions: for IC50: Chlorocebus sabaeus, VERO, CCK-8, 24 h; for proliferation rate of VERO cells / cytotoxicity in VERO cells: working concentrations; for proliferation rate of VERO cells: 24 h, vs control; for cytotoxicity in VERO cells: vs CXB
Description: as §1, §2

COX-2 mRNA in SAS cells = assay: RT-qPCR COX-2 mRNA, SAS; assay type: cell-based; conditions: working concentrations, 24 h, vs control
Description: (§3) Equal amounts of RNA were reverse transcribed into cDNA using the Reverse Transcription Kit (AG11705, Accurate Biology, Guangzhou, China) following the manufacturer’s instructions. Quantitative PCR was performed on a QIAGEN Rotor-GeneQ system (9001862, QIAGEN, Hilden, Germany) with SYBR Green Pro Taq HS Premix II (AG11702, Accurate Biology, China).
(§4) The PCR protocol consisted of initial denaturation at 95 °C for 30 s, followed by 40 cycles of 95 °C for 5 s and 60 °C for 30 s. All reactions were performed in triplicate, with melting curve analysis confirming amplification specificity. The expression of the target genes was normalized to GAPDH, and fold changes were calculated in the manner of the 2^−ΔΔCT .

[1] = system: CYP19A1 mRNA in CAL-27 cells; assay: RT-qPCR CYP19A1 mRNA, CAL-27; assay type: cell-based; conditions: CAL-27, vs control
Description: as §3, §4

[2] = system: CYP19A1 mRNA in SAS cells; assay: RT-qPCR CYP19A1 mRNA, SAS; assay type: cell-based; conditions: vs control group and CXB-treated group
Description: as §3, §4

[3] = system: MMP9 mRNA in CAL-27 cells; assay: RT-qPCR MMP9 mRNA, CAL-27; assay type: cell-based; conditions: CAL-27, 24 h, vs control
Description: as §3, §4

[4] = system: BCL2 mRNA in CAL-27 cells; assay: RT-qPCR BCL2 mRNA, CAL-27; assay type: cell-based; conditions: CAL-27, 24 h, vs control (NC)
Description: as §3, §4

[5] = system: JAK/STAT signaling pathway in SAS cells; assay: Western blot JAK/STAT signaling pathway, SAS; assay type: cell-based
Description: Cell lysates were centrifuged at 12,000× g for 10 min at 4 °C and then quantified using the BCA Protein Assay Kit (CW0014S, Cwbio, Taizhou, China). The lysate was denatured with sodium dodecyl sulfate–polyacrylamide gel electrophoresis (SDS-PAGE) sample loading buffer (P1040, Solarbio, Beijing, China), followed by SDS-PAGE and electrotransfer to polyvinylidene difluoride membranes (10600023, Cytiva, Marlborough, MA, USA). […] The bands were visualized by employing an ECL detection reagent (36208ES76, Yeasen, Shanghai, China) and independently quantified twice using ImageJ (v1.8.0.322) and ChemiScope Analysis (Version 2.1.6.0) software. […]

HepG2 = conditions: previous experiments, preliminary screening; cited from earlier work
[6] = cited from earlier work
[7] = cited from earlier work; remark: listed apart in the source
BCL2 mRNA in SAS cells = assay: RT-qPCR BCL2 mRNA, SAS; assay type: cell-based; conditions: vs NC and CXB groups
Description: as §3, §4

MMP9 mRNA in SAS cells = assay: RT-qPCR MMP9 mRNA, SAS; assay type: cell-based; conditions: vs control
Description: as §3, §4

[8] = CAL-27, 24 h, CAL-27, CCK-8, 24 h, given as a range, read-out: IC50 (range)
[9] = CAL-27, CAL-27, CCK-8, read-out: IC50 CAL-27
[10] = CCK-8, 24 h, given as a range, read-out: IC50 (range)

For `Cc1ccc(-c2cc(C)n(S(=O)(=O)Oc3ccccc3Cl)n2)cc1` [Compound 4d], which IC50 (CAL-27 cells; [8]) is on record?
Its IC50 is 44.3 to 55.1 µM.

And the IC50 (CAL-27 cells; [9])?
The IC50 was 53.9 µM.

And the “Selectivity Index CAL-27” value (CAL-27 cells)?
The value was >1.86.

And the IC50 (SAS cells; [10])?
The IC50 was 7.46 to 24.3 µM.

And the IC50 (SAS cells; CCK-8, read-out: IC50 SAS)?
Its IC50 is 16.7 µM.

What about the “Selectivity Index SAS” value (SAS cells) of the same compound?
The value was >6.00.

And the IC50 (VERO cells)?
The IC50 was > 100 µM.

And the “proliferation rate of VERO cells” value (VERO cells)?
Its value is “remained largely unchanged”.

What about the “cytotoxicity in VERO cells” value (VERO cells) of the same compound?
Its value is “lower cytotoxicity than CXB”.

What about the “COX-2 mRNA level” value (COX-2 mRNA in SAS cells) of the same compound?
Its value is “marked upregulation”.

What about the “CYP19A1 mRNA expression” value [1] of the same compound?
Its value is “significantly downregulated”.

What about the “CYP19A1 mRNA expression” value [2] of the same compound?
The value was “significantly reduced”.

And the “MMP9 mRNA expression” value [3]?
The value was “significantly downregulated”.

And the “BCL2 mRNA level” value [4]?
Its value is “significantly downregulated”.

And the “total JAK1 (Western blot)” value ([5]; vs NC)?
The value was “reached statistical significance”.

What about the “antiproliferative effect on HepG2” value (HepG2) of the same compound?
The value was “concentration-dependent antiproliferative effects”.

What about the “apoptosis of HepG2” value (HepG2) of the same compound?
Its value is “induction of apoptosis”.

And the “migration of HepG2” value (HepG2)?
The value was “suppression of migration”.

What about the “anti-inflammatory and analgesic activities” value [6] of the same compound?
The value was “excellent”.

And the oral toxicity [7]?
The oral toxicity was “low oral toxicity”.

For `Cc1cc(-c2ccco2)nn1S(=O)(=O)Oc1ccccc1Cl` [Compound 5f], which IC50 (CAL-27 cells; [8]) is on record?
Its IC50 is 52.9 to 74.8 µM.

And the IC50 (CAL-27 cells; [9])?
Its IC50 is 64.2 µM.

And the “Selectivity Index CAL-27” value (CAL-27 cells)?
The value was 3.50.

And the IC50 (SAS cells; [10])?
The IC50 was 59.4 to 69.5 µM.

What about the IC50 (SAS cells; CCK-8, read-out: IC50 SAS) of the same compound?
Its IC50 is 64.2 µM.

And the “Selectivity Index SAS” value (SAS cells)?
Its value is 3.50.

What about the IC50 (VERO cells) of the same compound?
Its IC50 is 225 µM.

What about the “proliferation rate of VERO cells” value (VERO cells) of the same compound?
The value was “moderate inhibitory effect”.

And the “cytotoxicity in VERO cells” value (VERO cells)?
Its value is “lower cytotoxicity than CXB”.

And the “COX-2 mRNA level” value (COX-2 mRNA in SAS cells)?
The value was “significantly downregulated”.

What about the “CYP19A1 mRNA expression” value [1] of the same compound?
The value was “slightly influenced the expression, although not significantly”.

What about the “CYP19A1 mRNA expression” value [2] of the same compound?
The value was “significantly reduced”.

And the “MMP9 mRNA expression” value [3]?
The value was “significantly downregulated”.

And the “BCL2 mRNA level” value [4]?
Its value is “upregulated”.

What about the “BCL2 mRNA expression” value (BCL2 mRNA in SAS cells) of the same compound?
Its value is “significantly suppressed”.

What about the “antiproliferative effect on HepG2” value (HepG2) of the same compound?
The value was “concentration-dependent antiproliferative effects”.

What about the “apoptosis of HepG2” value (HepG2) of the same compound?
The value was “induction of apoptosis”.

What about the “migration of HepG2” value (HepG2) of the same compound?
The value was “suppression of migration”.

Which results are given for `Cc1ccc(-c2cc(C)n(S(=O)(=O)Oc3ccc(I)cc3)n2)cc1` [Compound 4b]?
IC50 (CAL-27 cells; [8]): 38.9 to 43.8 µM; IC50 (CAL-27 cells; [9]): 41.4 µM; Selectivity Index CAL-27 (CAL-27 cells): 2.47; IC50 (SAS cells; [10]): 26 to 34.6 µM; IC50 (SAS cells; CCK-8, read-out: IC50 SAS): 30.2 µM; Selectivity Index SAS (SAS cells): 3.40; IC50 (VERO cells): 102 µM; proliferation rate of VERO cells (VERO cells): remained largely unchanged; cytotoxicity in VERO cells (VERO cells): lower cytotoxicity than CXB; COX-2 mRNA level (COX-2 mRNA in SAS cells): significantly downregulated; CYP19A1 mRNA expression [1]: significantly downregulated; CYP19A1 mRNA expression [2]: significantly reduced; MMP9 mRNA expression [3]: significantly downregulated; MMP9 mRNA level (MMP9 mRNA in SAS cells): significant reduction; BCL2 mRNA level [4]: significantly downregulated; BCL2 mRNA expression (BCL2 mRNA in SAS cells): significantly suppressed; p-JAK1 level (Western blot) [5]: no significant change; antiproliferative effect on HepG2 (HepG2): concentration-dependent antiproliferative effects; apoptosis of HepG2 (HepG2): induction of apoptosis; migration of HepG2 (HepG2): suppression of migration; anti-inflammatory and analgesic activities [6]: excellent; oral toxicity [7]: low oral toxicity
